Assay results from PubChem BioAssay (NCI).
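96-well plates; 48 h exposure; 5 concentrations. Endpoints by linear interpolation between flanking doses. Not reached: highest tested concentration assigned. Abbreviation: GI50, concentration required for 50% inhibition of growth. TGI denotes the concentration required for complete inhibition of growth.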

Columns and labels:
Test in all cases: inhibition of tumour cell growth, NCI panel, 48 h
[1] = system: SF-539 CNS
[2] = system: COLO 205 colon
[3] = system: MALME-3M melanoma
[4] = system: MDA-MB-435
[5] = system: UACC-257 melanoma
[6] = system: TK-10 renal
[7] = system: ACHN renal
[8] = system: BT-549 breast
[9] = system: SF-295 CNS
[10] = system: OVCAR-4 ovarian

Structure (SMILES)	GI50 [1] [µM]	TGI [1] [µM]	GI50 [2] [µM]	TGI [2] [µM]	GI50 [3] [µM]	TGI [3] [µM]	GI50 [4] [µM]	TGI [4] [µM]	GI50 [5] [µM]	TGI [5] [µM]	GI50 [6] [µM]	TGI [6] [µM]	GI50 [7] [µM]	TGI [7] [µM]	GI50 [8] [µM]	TGI [8] [µM]	GI50 [9] [µM]	TGI [9] [µM]	GI50 [10] [µM]	TGI [10] [µM]
Cc1ccc(O)cc1Nc1ccnc2cc(-c3ccccn3)ccc12	3.08	6.68	3.92	7.34	3.59	8.32	1.98	5.65	3.09	6.25	1.36	4.23	0.611	5.16	4.9	10.3	3.12	6.89	1.82	11.7
COc1cc2c(cc1OC)C(SC)C(=O)N(Cc1cccc(OC)c1OC)CC2 (stereo not given)	–	9.13	–	16.9	–	> 66.6	–	8.36	–	32.2	–	> 100	–	> 81.6	–	33.2	–	> 43.6	–	98.5
NCC(Cc1ccccc1)P(=O)(O)O (stereo not given)	–	> 100	–	> 100	–	> 100	–	> 100	–	> 100	–	> 100	–	> 100	–	> 100	–	> 100	–	> 100
C=CC(C)(O)CCC1C(=C)C(O)CC2C(C)(C)CCCC12C (stereo not given)	–	31.7	–	29.4	–	34.8	–	41.8	–	39	–	47.5	–	70.4	–	32.4	–	48	–	47.5
Cc1cc2c(cc1C)[n+](=O)c(C(=O)/C=C/c1ccccc1[N+](=O)[O-])c(C)n2[O-]	–	47.2	–	> 100	–	> 96.7	–	> 100	–	> 100	–	69.7	–	66.9	–	> 100	–	64.6	–	> 100
CC/C(=C(/c1ccc(/C=C/C(=O)O)cc1)c1ccc2[nH]ncc2c1)c1ccc(F)cc1Cl	7.84	21.6	15.5	35.3	18.6	44.9	2.76	8.38	17.4	43.2	15.9	33.4	9.16	24.3	7.79	22.7	7.81	21.1	12	27.9
COC(=O)C1=Nc2ccc(F)cc2/C1=C/c1sc(=S)[nH]c1O	0.0743	0.751	0.311	1.24	0.191	29	0.0233	0.0605	6.13	> 100	0.848	19.3	0.0697	18	0.161	3.31	0.125	13.2	0.692	23.8
CCc1ccc(C2=NN(c3ccc(S(C)(=O)=O)cc3)C(=O)CC2)cc1	2.3	11	1.05	7.75	3.58	> 82.2	0.212	0.804	1.68	55.3	8.31	> 100	8.48	> 100	0.513	16.3	0.904	8.54	7.14	> 91.5
